“Also recorded” adds a separate entry of the source. Like-named read-outs stand apart in the source and are kept apart here. [ ]: non-standard residue; d: D form. pGlu = O=C1CC[C@@H](C(=O)O)N1
Experiments:
[1] = test system: FSH release from hemi-anterior pituitaries of adult male rats; assay: FSH release in vitro, incubation with hemi-anterior pituitaries of male rats (RIA); type: cell-based, rat; settings: for FSH (ng/ml) / FSH: 3 hr incubation
Procedure: (§1) Adult male and female Sprague-Dawley rats (Holtzmann, Madison, Wis.; 200-250 g) were housed two per cage under controlled conditions of temperature (23-25° C.) and lighting (on from 0500 to 1700 hr). The animals had free access to a pellet diet and to tap water.
(§2) After acclimatization for 5 or more days in the vivarium, male rats were killed by decapitation. Following removal of the posterior lobe, the anterior pituitary (AP) was bisected longitudinally, and each AP was incubated in a tube containing 0.5 ml Krebs-Ringer bicarbonate (5 mM ascorbic acid; pH 7.4) buffer (KRB) in an atmosphere of 95% O2/5% CO2 in a Dubnoff shaker (50 cycles per min) for a period of 60 min. Following this pre-incubation period, the APs were incubated for 3 hr in fresh KRB buffer alone (control), or in KRB containing one of various concentrations of synthetic mammalian (m)-LHRH, l-LHRH-III, l-LHRH-I, chicken (c)-LHRH-II, or salmon (s)-LHRH. The medium was then aspirated, and was stored frozen at −20° C. until radio-immunoassays (RIA) for FSH and LH were conducted. FSH and LH were measured using kits supplied by the National Institute of Arthritis Digestive Diabetes and Kidney Disease; hormone values were expressed in terms of NIH-rFSH-RP-2 and NIH-rLH-RP-3 standards. The experiments were repeated twice. The inter- and intra-assay coefficients of variation for FSH assays were 7.5% and 5.2%, respectively; and were 6.5% and 4.8% for LH assays.

[2] = test system: LH release from hemi-anterior pituitaries of adult male rats; assay: LH release in vitro, incubation with hemi-anterior pituitaries of male rats (RIA); type: cell-based, rat; settings: for LH / LH (ng/ml): 3 hr incubation
Procedure: as §1, §2

FSH or LH release = settings: Yu et al., Brain Res. Bull. 1990; cited from earlier work
plasma FSH = assay: FSH release in vivo, ovariectomized estrogen/progesterone-treated female rats, intravenous injection; design: species or system rat; settings: for Change in FSH from baseline, 10 minutes in post-injection (ng/ml): 10 minutes post-injection, saline −3.85 ± 0.82
Procedure: as §1
(§3) Female rats were ovariectomized under anesthesia with isoflurane 4 weeks prior to the in vivo experiments. Three days before blood sampling, each ovariectomized rat was injected subcutaneously with 50 μg estradiol benzoate (Sigma Chemical Co., St. Louis, Mo.) dissolved in 0.1 ml sesame oil, and 25 mg progesterone (Eli Lilly, Indianapolis, Ind.) dissolved in 0.5 ml sesame oil. One day prior to testing, each animal was implanted with a jugular-atrial catheter. On the morning of testing, polyethylene tubing (PE-50) was connected to the distal end of the jugular-atrial catheter on the rat's dorsum to facilitate blood sampling and intravenous injection. Animals were acclimatized one hour before initial blood samples were taken. Heparinized blood samples ([…]) were collected just before, and at 10, 30, and 60 minutes after injection of 0.5 ml isotonic saline or l-LHRH-III (10 or 100 pmole) in 0.5 ml isotonic saline. After removal of each blood sample, an equal volume of isotonic saline was administered to maintain blood volume.

plasma LH = assay: LH release in vivo, ovariectomized estrogen/progesterone-treated female rats, intravenous injection; design: species or system rat; settings: for Change in LH from baseline, 10 minutes post-injection: saline −0.070 ± 0.122
Procedure: as §1, §3

[3] = test system: Petromryzon marinus (lamprey) ovaries; settings: Sower et al., Endocrinology 1993; cited from earlier work
[4] = test system: selective FSH-releasing activity; assay: In vivo screening of known LHRH's from various species for selective FSH-releasing activity; settings: unpublished data of the applicant's laboratory
Text: Our laboratory also screened known LHRH's from various species for selective FSH-releasing activity; and we also evaluated the activity of 25 analogs of LHRH in in vivo assays.

[5] = Table 2, 10^−5M, KRB control 97.7 ± 20.4
[6] = Table 2, 10^−6M, KRB control 97.7 ± 20.4
[7] = Table 3, 10^−5M, KRB control 139.3 ± 16.9
[8] = Table 3, 10^−6M, KRB control 139.3 ± 16.9
[9] = Table 4, 10^−6M, KRB control 157.5 ± 13.2
[10] = Table 4, 10^−7M, KRB control 157.5 ± 13.2
[11] = Table 4, 10^−8M, KRB control 157.5 ± 13.2
[12] = Table 5, 10^−6M, KRB control 149.3 ± 17.0
[13] = Table 5, 10^−7M, KRB control 149.3 ± 17.0
[14] = Table 5, 10^−8M, KRB control 149.3 ± 17.0
[15] = 10 or 100 pmole intravenous, versus saline control

Substance: [pGlu]HWSLEWKPG-NH2 [l-LHRH-I, reference compound]
- FSH release in vitro (result in words) [1]: small but statistically significant release of FSH; also recorded: minimal potency to release either FSH or LH
- FSH (ng/ml) [1, 5]: **178.2 ± 17.0 ng/ml
- FSH (ng/ml) [1, 6]: *164.0 ± 29.3 ng/ml
- LH release in vitro (result in words) [2]: inactive; also recorded: minimal potency to release either FSH or LH
- LH [2, 7]: 120.4 ± 8.1 ng/mL
- LH [2, 8]: 134.1 ± 23.2 ng/mL
- activity in releasing FSH or LH in rats (result in words) (FSH or LH release): relatively low activity in releasing either FSH or LH

Substance: pGlu-His-Trp-Ser-His-Asp-Trp-Lys-Pro-Gly-NH2 (XHWSHDWKPX; pyroGlu; C-terminal amide) [l-LHRH-III]
- FSH release in vitro (result in words) [1]: approximately equipotent toward releasing FSH
- FSH (ng/ml) ([1]; Table 2, 10^−4M, KRB control 97.7 ± 20.4): ****368.6 ± 40.9 ng/ml
- FSH (ng/ml) [1, 5]: **283.0 ± 60.8 ng/ml
- FSH (ng/ml) [1, 6]: **278.2 ± 40.9 ng/ml
- FSH (ng/ml) ([1]; Table 2, 10^−7M, KRB control 97.7 ± 20.4): ***213.0 ± 17.9 ng/ml
- FSH (ng/ml) ([1]; Table 2, 10^−8M, KRB control 97.7 ± 20.4): **255.7 ± 42.4 ng/ml
- FSH (ng/ml) ([1]; Table 2, 10^−9M, KRB control 97.7 ± 20.4): *228.3 ± 52.5 ng/ml
- concentration of maximal effect on FSH release ([1]; Table 2 experiment, levelled off through 10^−4 M): about 10^−6 M
- minimal effective concentration (MEC) for FSH release ([1]; Table 2 experiment, lowest concentration tested): ≤ 10^−9 M
- FSH [1, 9]: 215.0 ± 38.0 ng/mL
- FSH (ng/ml) [1, 10]: *203.2 ± 16.4 ng/ml
- FSH (ng/ml) [1, 11]: *249.3 ± 31.3 ng/ml
- FSH ([1]; Table 4, 10^−9M, KRB control 157.5 ± 13.2): 196.3 ± 21.2 ng/mL
- MEC for a statistically significant release of FSH relative to c-LHRH-II ([1]; Table 4 experiment): two orders of magnitude lower
- LH release in vitro (result in words) [2]: much weaker effect on LH release; also recorded: no LH-releasing activity
- LH (ng/ml) ([2]; Table 3, 10^−4M, KRB control 139.3 ± 16.9): **236.6 ± 19.3 ng/ml
- LH (ng/ml) [2, 7]: *202.9 ± 31.2 ng/ml
- LH (ng/ml) [2, 8]: *233.6 ± 33.8 ng/ml
- LH ([2]; Table 3, 10^−7M, KRB control 139.3 ± 16.9): 179.9 ± 28.4 ng/mL
- LH ([2]; Table 3, 10^−8M, KRB control 139.3 ± 16.9): 165.7 ± 26.6 ng/mL
- LH ([2]; Table 3, 10^−9M, KRB control 139.3 ± 16.9): 171.8 ± 27.3 ng/mL
- concentrations active on LH release ([2]; Table 3 experiment): 10^−6-10^−4 M
- LH [2, 12]: 176.0 ± 9.3 ng/mL
- LH [2, 13]: 182.7 ± 13.7 ng/mL
- LH [2, 14]: 163.2 ± 6.5 ng/mL
- LH ([2]; Table 5, 10^−9M, KRB control 149.3 ± 17.0): 158.7 ± 10.2 ng/mL
- Change in FSH from baseline, 10 minutes in post-injection (ng/ml) (plasma FSH; 10 pmole intravenous): **−0.75 ± 0.37 ng/ml
- Change in FSH from baseline, 10 minutes in post-injection (ng/ml) (plasma FSH; 100 pmole intravenous): **−0.43 ± 0.61 ng/ml
- FSH release in vivo (result in words) (plasma FSH; [15]): increase in FSH in vivo (P<0.01) within ten minutes; also recorded: highly significant increase in plasma FSH 10 minutes after injection, an effect that vanished by 30 minutes post-injection; also recorded: slightly greater effect at 10 minutes that was maintained 30 minutes after injection; also recorded: caused the release of FSH in vivo, but not LH
- Change in LH from baseline, 10 minutes post-injection (plasma LH; 10 pmole intravenous): -0.022 ± 0.078 ng/mL
- Change in LH from baseline, 10 minutes post-injection (plasma LH; 100 pmole intravenous): 0.097 ± 0.077 ng/mL
- LH release in vivo (result in words) (plasma LH; [15]): no significant increase in LH; also recorded: Neither the 10 pmole nor the 100 pmole dose of l-LHRH-III produced a statistically significant difference in LH levels
- estradiol and progesterone release from lamprey ovaries (result in words) [3]: stimulated estradiol and progesterone release

Substance: pGlu-His-Trp-Ser-His-Gly-Trp-Tyr-Pro-Gly-NH2 (XHWSHGWYPX; HELM PEPTIDE1{[Glp].H.W.S.H.G.W.Y.P.G.[am]}$$$$V2.0; SMILES NC(=O)CNC(=O)[C@@H]1CCCN1C(=O)[C@H](Cc1ccc(O)cc1)NC(=O)[C@H](Cc1c[nH]c2ccccc12)NC(=O)CNC(=O)[C@H](Cc1c[nH]cn1)NC(=O)[C@H](CO)NC(=O)[C@H](Cc1c[nH]c2ccccc12)NC(=O)[C@H](Cc1c[nH]cn1)NC(=O)[C@@H]1CCC(=O)N1) [c-LHRH-II, reference compound]
- FSH release in vitro (result in words) [1]: low potency
- FSH (ng/ml) [1, 9]: ***263.7 ± 17.8 ng/ml
- FSH [1, 10]: 209.3 ± 44.0 ng/mL
- FSH [1, 11]: 123.7 ± 18.0 ng/mL
- concentration significantly increasing FSH release ([1]; Table 4 experiment, highest concentration tested): 10^−6 M
- LH release in vitro (result in words) [2]: equivalent LH-releasing activity to that of m-LHRH
- LH (ng/ml) [2, 12]: *239.0 ± 31.7 ng/ml
- LH (ng/ml) [2, 13]: *216.3 ± 17.7 ng/ml
- LH (ng/ml) [2, 14]: *199.3 ± 13.6 ng/ml
- LH release in vitro (result in words) ([2]; listed as Chicken (c) LHRH-II): stimulated LH release
- selectivity for FSH release in vivo (result in words) [4]: slight selectivity for FSH release
- selectivity for FSH release in vivo (result in words) ([4]; listed as chicken (c) LHRH-II): slightly preferential FSH-releasing activity in vivo

Substance: pGlu-His-Trp-Ser-Tyr-Gly-Trp-Leu-Pro-Gly-NH2 (XHWSYGWLPX; HELM PEPTIDE1{[Glp].H.W.S.Y.G.W.L.P.G.[am]}$$$$V2.0; SMILES CC(C)C[C@H](NC(=O)[C@H](Cc1c[nH]c2ccccc12)NC(=O)CNC(=O)[C@H](Cc1ccc(O)cc1)NC(=O)[C@H](CO)NC(=O)[C@H](Cc1c[nH]c2ccccc12)NC(=O)[C@H](Cc1c[nH]cn1)NC(=O)[C@@H]1CCC(=O)N1)C(=O)N1CCC[C@H]1C(=O)NCC(N)=O) [s-LHRH, reference compound]
- FSH [1, 9]: 203.2 ± 39.2 ng/mL
- FSH (ng/ml) [1, 10]: *233.0 ± 37.4 ng/ml
- FSH release in vitro (result in words) ([1]; listed as Salmon (s)-LHRH): stimulated the release of both FSH and LH
- FSH release in vitro (result in words) ([1]; listed as Salmon LHRH): low potency
- LH release in vitro (result in words) [2]: stimulated the release of both FSH and LH
- LH [2, 12]: 186.2 ± 13.6 ng/mL
- LH (ng/ml) [2, 13]: *230.8 ± 38.8 ng/ml

Reference: patent US6407205B1, “FSH-releasing peptides” (Board of Supervisors of Louisiana State University and …, priority 1997, dated 2002)
